Consider 16 compounds from US11807628B2, “Benzodiazepine derivatives and uses thereof” (priority 2018, dated 2023).

The test system of one assay is A-498. Put plainly: In vitro analysis of benzodiazepine dimer derivatives, MTT cell viability. Format: cell-based. The note with it: MTT assay, 6 days incubation. The method, then: (§1) Example 85: In Vitro Analysis of Benzodiazepine Dimer Derivatives A-498, HCT-116, JIMT-1, MIA-PaCa-2 and HEK-293E were seeded into 24-well plates at 10×10^3 cells/1 mL medium/well. Calu-6, PC-3 and SK-OV-3 were seeded into 24-well plates at 15×10^3 cells/1 mL medium/well. NCI-N87 was seeded into 24-well plates at 25×10^3 cells/1 mL medium/well. The plates were incubated for 24 hours at 37° C. in a humidified 5% CO2-in-air atmosphere. Benzodiazepine dimer derivatives were dissolved initially in DMSO at a concentration of 10 mM. Serial dilutions were made in DMSO. The series of compound dilutions in DMSO were added to triplicate wells of 24-well plates at 5 μL per well. Three wells on each individual plate received 5 μL of DMSO without compound as controls. The final concentration of DMSO per well was 0.5%. The plates were incubated for 6 days at 37° C. in a humidified 5% CO2-in-air atmosphere. Cell viability was determined by the MTT assay and IC50 was generated using a sigmoidal dose-response nonlinear regression curve fit (GraphPad Software Inc.).

Another assay has as its system Calu-6. The description is as above. Type of assay: cell-based. The note with it: MTT assay, 6 days incubation. The method, then: as §1
In general terms: Formazan colour is commonly taken as a measure of viable cells.

The next assay has as its system HCT-116. Described as above. The note with it: MTT assay, 6 days incubation. Type of assay: cell-based. The procedure:
as §1

In another assay the test system is HEK-293E. Described as above. Format: cell-based. Particulars: MTT assay, 6 days incubation. The method, then: as §1
Assay [1] relates to JIMT-1. Described as above. Type of assay: cell-based. The note with it: MTT assay, 6 days incubation. The method, then:
as §1

The next assay relates to MIA-PaCa2. The assay is described as above. Format: cell-based. Particulars: MTT assay, 6 days incubation. The method, then: as §1
The subject of assay [2] is NCI-N87. The assay is described as above. Type of assay: cell-based. Particulars: Homo sapiens, NCI-N87, 144 h; MTT assay, 6 days incubation. The method, then: as §1
Another assay has as its system PC-3. The description is as above. The note with it: MTT assay, 6 days incubation. Type of assay: cell-based. The method, then:
as §1

Assay [3] has as its system SK-OV3. The description is as above. Type of assay: cell-based. Particulars: MTT assay, 6 days incubation. The method, then: as §1
For assay [4], the system named is JIMT-1. The assay can be described thus: Cell cytotoxicity of antibody-drug conjugate. Format: cell-based. The note with it: living cells quantified 96 hours later. The procedure:
(§2) NCI-N87, JNMT-2, SK-BR3, and SK-V3 cancer cells were seeded in 96-well plates at a density of 2,000 to 8,000 cells per well in 100 μL of medium, and cultured for 24 hours. The four compounds obtained in Example 46 were treated by serial dilutions of 1:4 from 600 nM to 0.009 nM, and the antibody drug conjugate T-DM1 was treated by serial dilutions of 1:4 from 200 nM to 0.003 nM. Experiments were performed in a similar manner to Test Example 1 to quantify living cells 96 hours later, and results are shown in Table 2 below. Further, results of in vitro analysis of compound T-2-AB, T-3-AB, T-7-AB T-8-AB, T-9-AB, T-11-AB, T-12-AB, T-13-AB, T-14-AB, T-15-AB, T-16-AB, T-17-AB, T-Int-1-AB, T-Int-2-AB, T-Int-14-AB and mT-Int-8-AB were shown in FIG. 10, FIG. 11, FIG. 12, and Table 3.

The subject of assay [5] is NCI-N87. Put plainly: Cell cytotoxicity of antibody-drug conjugate. Format: cell-based. Particulars: living cells quantified 96 hours later. The method, then:
as §2

A further assay deals with SK-BR3. The assay can be described thus: Cell cytotoxicity of antibody-drug conjugate. Format: cell-based. Particulars: living cells quantified 96 hours later. The method, then:
as §2

For assay [6], the system named is SK-OV3. The assay can be described thus: Cell cytotoxicity of antibody-drug conjugate. Type of assay: cell-based. The note with it: living cells quantified 96 hours later. The procedure: as §2
For a further assay, the system named is NCI-N87 cells. Put plainly: In vivo efficacy, tumor xenograft studies in mice. Particulars: Male BALB/c nu/nu mice, tumors approximately 95 mm^3 at start, single i.v. injection day 0 (T-2-AB 0.5 or 2 mg/kg, T-DM1 2 mg/kg), 80 days observation. The method, then:
In vivo efficacy of antibody-drug conjugates of the invention was measured by tumor xenograft studies in mice. Male BALB/c nu/nu were injected subcutaneously in the right flank with suspensions of 5×10^6 of NCI-N87 cells respectively in PBS. Mice were randomized into study groups when tumors reached approximately 95 mm^3. T-DM1 (2 mg/kg) and T-2-AB conjugates (0.5 mg/kg or 2 mg/kg) were given i.v. (single injection on treatment day 0). All treatment groups consisted of 6 to 10 animals per group, and tumor size was monitored twice weekly using caliper measurement. The tumor mass was calculated as volume=(width×width×length)/2.
T-7-AB was progressed in the same method except initial tumor size was 150 mm^3.

Setting [7] is: Homo sapiens, MIA PaCa-2, 144 h.

Non-standard residues stand in square brackets, D forms with d. Residues, ends and D or L forms follow the SMILES beside them. Dolaproine = CO[C@@H]([C@@H]1CCCN1)[C@@H](C)C(=O)O; Dil = CC[C@H](C)[C@H](NC)[C@@H](CC(=O)O)OC; NMeV = CN[C@H](C(=O)O)C(C)C

As for `C=C1C[C@H]2C=Nc3cc(OCc4cc(O)cc(COc5cc6c(cc5OC)C(=O)N5CC(=C)C[C@H]5C=N6)c4)c(OC)cc3C(=O)N2C1` [Compound D-1, (Phenol)-PBD-Dimer], the IC50 – broadly, the concentration at which inhibition is half-maximal – in the assay on A-498 (Homo sapiens, A498, 144 h) was determined as 414 pM; with Calu-6 (Homo sapiens, Calu-6, 144 h), 89 pM; with HCT-116 (Homo sapiens, HCT-116, 144 h) it was 109 pM; with HEK-293E (HEK293E, 144 h), 216 pM; in the assay on JIMT-1 [1] (Homo sapiens, JIMT-1, 144 h) it was 102 pM; in the assay with MIA-PaCa2 (setting [7]), 105 pM. For the same compound, the IC50 was 191 pM in the assay with NCI-N87 [2]; 126 pM in the assay with PC-3 (Homo sapiens, PC-3, 144 h); 175 pM in the assay on SK-OV3 [3] (Homo sapiens, SK-OV-3, 144 h).

With `C=C1C[C@H]2C=Nc3cc(OCc4cncc(COc5cc6c(cc5OC)C(=O)N5CC(=C)C[C@H]5C=N6)c4)c(OC)cc3C(=O)N2C1` [Compound D-2, (Pyridine)-PBD-Dimer], the IC50 was found to be 64 pM in the assay with A-498 (Homo sapiens, A498, 144 h); 29 pM in the assay with Calu-6 (Homo sapiens, Calu-6, 144 h); 36 pM in the assay on HCT-116 (Homo sapiens, HCT-116, 144 h); 79 pM in the assay on HEK-293E (HEK293E, 144 h); 34 pM in the assay with JIMT-1 [1] (Homo sapiens, JIMT-1, 144 h); 44 pM with MIA-PaCa2 (setting [7]). In addition, the IC50 with NCI-N87 [2] worked out at 104 pM; with PC-3 (Homo sapiens, PC-3, 144 h), 49 pM; in the assay on SK-OV3 [3] (Homo sapiens, SK-OV-3, 144 h), 74 pM.

In the case of `COc1cc2c(cc1OCc1cc(O)cc(COc3cc4c(cc3OC)C(=O)N3Cc5ccccc5C[C@H]3C=N4)c1)N=C[C@@H]1Cc3ccccc3CN1C2=O` [Compound D-3, (Phenol)-TBD-Dimer], the IC50 in the assay on A-498 (Homo sapiens, A498, 144 h) is 139 pM; in the assay with Calu-6 (Homo sapiens, Calu-6, 144 h) it was 6.2 pM; with HCT-116 (Homo sapiens, HCT-116, 144 h), 13.7 ± 8.6 pM; with HEK-293E (HEK293E, 144 h), 11.4 ± 2.6 pM; with JIMT-1 [1] (Homo sapiens, JIMT-1, 144 h) it was 31 ± 15 pM; in the assay with MIA-PaCa2 (setting [7]) it was 10.6 ± 4.6 pM. Also, the IC50 in the assay on NCI-N87 [2] is 32.2 ± 21.3 pM; in the assay on PC-3 (Homo sapiens, PC-3, 144 h), 32.6 ± 10.3 pM; in the assay with SK-OV3 [3] (Homo sapiens, SK-OV-3, 144 h), 59.6 ± 18.2 pM.

On to `COc1cc2c(cc1OCc1cncc(COc3cc4c(cc3OC)C(=O)N3Cc5ccccc5C[C@H]3C=N4)c1)N=C[C@@H]1Cc3ccccc3CN1C2=O` [Compound D-4, (Pyridine)-TBD-Dimer], for which the IC50 in the assay with JIMT-1 [1] (Homo sapiens, JIMT-1, 144 h) was found to be 1.7 ± 0.6 pM; with NCI-N87 [2], 3.8 ± 2.4 pM.

Regarding `COc1cc2c(cc1OCc1cc(COc3cc4c(cc3OC)C(=O)N3Cc5ccccc5C[C@H]3C=N4)cc(CN(C)C)c1)N=C[C@@H]1Cc3ccccc3CN1C2=O` [Compound D-5, (N,N-dimethylbenzyl)-TBD-Dimer], the half-inhibitory concentration (IC50) was found to be 2.9 pM with A-498 (Homo sapiens, A498, 144 h); 1.4 pM in the assay on Calu-6 (Homo sapiens, Calu-6, 144 h); 1.4 ± 0.6 pM with HCT-116 (Homo sapiens, HCT-116, 144 h); 2.2 ± 1.1 pM with HEK-293E (HEK293E, 144 h); 1.7 ± 0.5 pM in the assay on JIMT-1 [1] (Homo sapiens, JIMT-1, 144 h); 1.9 ± 1.6 pM in the assay on MIA-PaCa2 (setting [7]). Besides, the IC50 came out at 4.4 ± 2.1 pM in the assay on PC-3 (Homo sapiens, PC-3, 144 h) and 10.9 ± 2.7 pM in the assay with SK-OV3 [3] (Homo sapiens, SK-OV-3, 144 h).

Consider `COc1cc2c(cc1OCCN(CCOc1cc3c(cc1OC)C(=O)N1Cc4ccccc4C[C@H]1C=N3)c1ccncc1)N=C[C@@H]1Cc3ccccc3CN1C2=O` [Compound D-6, (N-Pyridine)-TBD-Dimer], for which the IC50 in the assay on JIMT-1 [1] (Homo sapiens, JIMT-1, 144 h) is 2980 pM; in the assay on NCI-N87 [2], 4110 pM.

The compound `COc1cc2c(cc1OCc1cc(O)cc(COc3cc4c(cc3OC)C(=O)N3c5ccccc5C[C@H]3C=N4)c1)N=C[C@@H]1Cc3ccccc3N1C2=O` [Compound D-7, (Phenol)-IBD-Dimer] displayed an IC50 in the assay with NCI-N87 [2] of 118 ± 9 pM.

`COc1cc2c(cc1OCc1cc(COc3cc4c(cc3OC)C(=O)N3c5ccccc5C[C@H]3C=N4)cc(CN(C)C)c1)N=C[C@@H]1Cc3ccccc3N1C2=O` [Compound D-8, (N,N-dimethylbenzyl)-IBD-Dimer] yielded an IC50 in the assay with NCI-N87 [2] of 62 ± 2 pM.

As for `COc1cc2c(cc1OCCN(C)CCOc1cc3c(cc1OC)C(=O)N1Cc4ccccc4C[C@H]1C=N3)N=C[C@@H]1Cc3ccccc3CN1C2=O` [Compound D-9], in the assay on NCI-N87 [2], the midpoint of inhibition, the IC50, lay at 184 ± 36 pM.

`C=C1C[C@H]2C=Nc3cc(OCc4cc(COc5cc6c(cc5OC)C(=O)N5CC(=C)C[C@H]5C=N6)cc(CN(C)C)c4)c(OC)cc3C(=O)N2C1` [Compound D-10] yielded an IC50 in the assay with NCI-N87 [2] of 663 ± 116 pM.

Regarding `COc1cc2c(cc1OCc1cc(O)cc(COc3cc4c(cc3OC)C(=O)N3C=C(c5ccccc5)C[C@H]3C=N4)c1)N=C[C@@H]1CC(c3ccccc3)=CN1C2=O` [Compound D-11], in the assay on NCI-N87 [2], the midpoint of inhibition, the IC50, lay at 173 ± 34 pM.

With `COc1cc2c(cc1OCc1cc(COc3cc4c(cc3OC)C(=O)N3Cc5cc(O)ccc5C[C@H]3C=N4)cc(CN(C)C)c1)N=C[C@@H]1Cc3ccccc3CN1C2=O` [Compound D-12], the IC50 in the assay on NCI-N87 [2] was 2030 pM.

As for `COc1cc2c(cc1OCCCCCOc1cc3c(cc1OC)C(=O)N1Cc4cc(O)ccc4C[C@H]1C=N3)C=N[C@@H]1Cc3ccccc3CN1C2=O` [Compound D-13], half-maximal inhibition with NCI-N87 [2] (IC50) required 2030 ± 1220 pM.

As for `CC[C@H](C)[C@@H]([C@@H](CC(=O)N1CCC[C@H]1[C@H](OC)[C@@H](C)C(=O)N[C@@H](Cc1ccccc1)C(=O)OC)OC)N(C)C(=O)[C@@H](NC(=O)[C@@H](NC)C(C)C)C(C)C` [MMAF-OMe, reference compound] (H-[NMeV]V[Dil][Dolaproine]F-OMe), the IC50 in the assay with A-498 came out at 233 pM; in the assay on Calu-6 it was 162 pM; with HCT-116 it was 392 pM; in the assay with HEK-293E it was 970 pM; with JIMT-1 [1], 161 pM; with MIA-PaCa2 it was 852 pM. Further, the IC50 in the assay with PC-3 was 212 pM; with SK-OV3 [3], 244 pM.

As to `COc1cc2c(cc1OCc1cccc(COc3cc4c(cc3OC)C(=O)N3Cc5ccccc5C[C@H]3C=N4)c1)N=C[C@@H]1Cc3ccccc3CN1C2=O` [Ref-1, reference compound], the IC50 was 5.4 ± 1.6 pM in the assay on JIMT-1 [1] (Homo sapiens, JIMT-1, 144 h) and 3.5 ± 2.8 pM in the assay with NCI-N87 [2].

T-DM1: the IC50 stood at 3.15 ± 1.76 nM in the assay with JIMT-1 [4], 0.234 ± 0.096 nM with NCI-N87 [5], 0.037 ± 0.012 nM in the assay with SK-BR3 and 0.109 ± 0.004 nM in the assay with SK-OV3 [6]. In addition, in the assay on NCI-N87 cells, the “Tumor size in NCI-N87 xenograft” value is “less active than the conjugates of the invention”.
